According to patent publication US20240058422A1, “GLUCAGON-LIKE PEPTIDE-1 RECEPTOR ANTAGONISTS” (INDIANA UNIVERSITY RESEARCH AND TECHNOLOGY CORPORATION, priority 2022, published 2024):
In brackets after ≈: the same amount, converted by molar mass. Read-outs that look alike come from different tables or passages of the source. Starred links: 1 amine or outer side, 2 acyl side, 3 side chain; linkers in the order of their positions; H or OH if unused. Non-standard residues stand in square brackets, D forms with d. Residues, ends and D or L forms follow the SMILES beside them. Groups on a side chain read outwards from the residue. *: point of attachment. C18 diacid = O=C(O)CCCCCCCCCCCCCCCCC(=O)*; γGlu = O=C(O)[C@H](CCC(=O)[*:2])N[*:1]; Palmitoyl = CCCCCCCCCCCCCCCC(=O)*; AEEA = NCCOCCOCC(=O)O

Columns and labels:
Solubility in buffer = settings: 80 mM ammonium bicarbonate buffer
GLP-1R = GLP-1R (Homo sapiens, UniProt P43220); test: GLP-1 receptor-mediated cAMP induction, luciferase reporter gene antagonism assay; assay type: cell-based; parameters: host or cells: HEK 293; settings: antagonism of 0.05 nM GLP-1, HEK 293 cells
Description: GLP-1 Receptor-Mediated cAMP Induction The ability of peptides to stimulate or block cAMP induction at the GLP-1 receptor was examined by a luciferase-based reporter gene assay. Cotransfection of HEK 293 cells with the human GLP-1 receptor (Open Biosystems) and a cAMPinducible (cAMPresponsive element) luciferase gene constituted the cellular construct where receptor activation could be measured. Bioassays were performed by first serum depriving the cells for 16 h in 0.25% bovine growth serum (HyClone)-supplemented Dulbecco's modified Eagle's medium (Invitrogen) and then adding serial dilutions of the peptides over the appropriate concentration ranges in 96-well poly-D-lysine-coated plates (BD Biosciences). For antagonism assays, a constant concentration of GLP-1 (0.05 nM) was added to the assay plate after the diluted peptides. Incubation continued for 5 h at 37° C., 5% CO2 and was followed by the addition of an equivalent volume (100 μL) of LucLite luminescence substrate reagent (Perkin-Elmer). MicroBeta 1450 liquid scintillation counting (Perkin-Elmer) quantified the luminescence signal in counts per second (cps) after shaking the plate at 600 rpm for 3 min. Data was plotted using Origin software (OriginLab) and the effective concentration 50 (EC50) or inhibitory concentration 50 (IC50) was determined by sigmoidal fitting. Potency was determined by comparative analysis of relative EC50 or IC50 values. Each experiment was repeated at least three times with each sample assayed in duplicate.

[1] = pH 7.7, Solubility [mg/mL] 80 mM AmBicarb pH7.7, Table 2, 80 mM AmBicarb pH7.7
[2] = Table 2, C16 linker variants of 9-40amide Jant4 K40[X], read-out: Biactivity IC50

Sequence of GLP-1R (P43220 24-463): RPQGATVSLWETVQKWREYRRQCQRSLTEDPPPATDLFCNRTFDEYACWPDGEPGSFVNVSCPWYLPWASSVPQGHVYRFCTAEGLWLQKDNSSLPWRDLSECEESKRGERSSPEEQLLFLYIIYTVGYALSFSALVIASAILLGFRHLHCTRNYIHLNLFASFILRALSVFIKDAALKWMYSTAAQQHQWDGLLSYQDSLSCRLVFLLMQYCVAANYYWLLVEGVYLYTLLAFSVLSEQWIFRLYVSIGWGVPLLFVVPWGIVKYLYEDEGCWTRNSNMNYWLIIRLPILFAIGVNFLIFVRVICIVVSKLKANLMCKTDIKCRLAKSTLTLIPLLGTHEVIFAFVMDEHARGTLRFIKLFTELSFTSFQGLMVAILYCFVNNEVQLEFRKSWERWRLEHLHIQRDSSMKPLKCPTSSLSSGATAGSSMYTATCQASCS

Row | SMILES | solubility (Solubility in buffer; [1]) [mg/mL] | IC50 (GLP-1R; [2]) [nM] | solubility (Solubility in buffer; pH 7.7) [mg/mL] | IC50 (GLP-1R; Table 5, d-AA variants of 9-40am Jant4 K40[C16], read-out: Bioactivity KC50) [nM]
1 | CC[C@H](C)[C@H](NC(=O)[C@H](Cc1ccccc1)NC(=O)[C@H](CCC(=O)O)NC(=O)[C@H](CCCNC(=N)N)NC(=O)[C@@H](NC(=O)[C@H](C)NC(=O)[C@H](CCC(N)=O)NC(=O)[C@H](CCC(=O)O)NC(=O)[C@H](CCC(=O)O)NC(=O)[C@H](CC(C)C)NC(=O)[C@H](Cc1ccc(O)cc1)NC(=O)[C@H](CO)NC(=O)[C@H](CO)NC(=O)[C@@H](NC(=O)[C@@H](N)CC(=O)O)C(C)C)C(C)C)C(=O)N[C@@H](C)C(=O)N[C@@H](Cc1c[nH]c2ccccc12)C(=O)N[C@@H](CC(C)C)C(=O)N[C@H](C(=O)N[C@@H](CCCCN)C(=O)NCC(=O)NCC(=O)N1CCC[C@H]1C(=O)N[C@@H](CO)C(=O)N[C@@H](CO)C(=O)NCC(=O)N[C@@H](C)C(=O)N1CCC[C@H]1C(=O)N1CCC[C@H]1C(=O)N1CCC[C@H]1C(=O)N[C@@H](CO)C(=O)N[C@@H](CCCCNC(=O)COCCOCCNC(=O)COCCOCCNC(=O)CC[C@H](NC(=O)CCCCCCCCCCCCCCCCC(=O)O)C(=O)O)C(N)=O)C(C)C [compound 67] (H-DVSSYLEEQAVREFIAWLVKGGPSSGAPPPSK([AEEA-AEEA-γGlu-C18 diacid])-NH2) | > 25 | 579 | – | –
2 | CCCCCCCCCCCCCCCC(=O)NCCOCCOCC(=O)N[C@@H](CCC(=O)N[C@@H](CCC(=O)NCCOCCOCC(=O)NCCCC[C@H](NC(=O)[C@H](CO)NC(=O)[C@@H]1CCCN1C(=O)[C@@H]1CCCN1C(=O)[C@@H]1CCCN1C(=O)[C@H](C)NC(=O)CNC(=O)[C@H](CO)NC(=O)[C@H](CO)NC(=O)[C@@H]1CCCN1C(=O)CNC(=O)CNC(=O)[C@H](CCCCN)NC(=O)[C@@H](NC(=O)[C@H](CC(C)C)NC(=O)[C@H](Cc1c[nH]c2ccccc12)NC(=O)[C@H](C)NC(=O)[C@@H](NC(=O)[C@H](Cc1ccccc1)NC(=O)[C@H](CCC(=O)O)NC(=O)[C@H](CCCNC(=N)N)NC(=O)[C@@H](NC(=O)[C@H](C)NC(=O)[C@H](CCC(N)=O)NC(=O)[C@H](CCC(=O)O)NC(=O)[C@H](CCC(=O)O)NC(=O)[C@H](CC(C)C)NC(=O)[C@H](Cc1ccc(O)cc1)NC(=O)[C@H](CO)NC(=O)[C@H](CO)NC(=O)[C@@H](NC(=O)[C@@H](N)CC(=O)O)C(C)C)C(C)C)[C@@H](C)CC)C(C)C)C(N)=O)C(=O)O)C(=O)O [compound 60] (H-DVSSYLEEQAVREFIAWLVKGGPSSGAPPPSK([AEEA-γGlu-γGlu-AEEA-Palmitoyl])-NH2; N-terminus assumed) | > 25 | 5 | – | –
3 | CCCCCCCCCCCCCCCC(=O)N[C@@H](CCC(=O)NCCCC[C@H](NC(=O)[C@H](CO)NC(=O)[C@@H]1CCCN1C(=O)[C@@H]1CCCN1C(=O)[C@@H]1CCCN1C(=O)[C@H](C)NC(=O)CNC(=O)[C@H](CO)NC(=O)[C@H](CO)NC(=O)[C@@H]1CCCN1C(=O)CNC(=O)CNC(=O)[C@H](CCCCN)NC(=O)[C@@H](NC(=O)[C@H](CC(C)C)NC(=O)[C@H](Cc1c[nH]c2ccccc12)NC(=O)[C@H](C)NC(=O)[C@@H](NC(=O)[C@H](Cc1ccccc1)NC(=O)[C@H](CCC(=O)O)NC(=O)[C@H](CCCNC(=N)N)NC(=O)[C@@H](NC(=O)[C@H](C)NC(=O)[C@H](CCC(N)=O)NC(=O)[C@H](CCC(=O)O)NC(=O)[C@H](CCC(=O)O)NC(=O)[C@H](CC(C)C)NC(=O)[C@H](Cc1ccc(O)cc1)NC(=O)[C@H](CO)NC(=O)[C@H](CO)NC(=O)[C@@H](NC(=O)[C@@H](N)CC(=O)O)C(C)C)C(C)C)[C@@H](C)CC)C(C)C)C(N)=O)C(=O)O [compound 52] (H-DVSSYLEEQAVREFIAWLVKGGPSSGAPPPSK([γGlu-Palmitoyl])-NH2; N-terminus assumed) | > 20 | 12 | – | –
4 | CCCCCCCCCCCCCCCC(=O)N[C@@H](CCC(=O)N[C@@H](CCC(=O)N[C@@H](CCC(=O)N[C@@H](CCC(=O)NCCCC[C@H](NC(=O)[C@H](CO)NC(=O)[C@@H]1CCCN1C(=O)[C@@H]1CCCN1C(=O)[C@@H]1CCCN1C(=O)[C@H](C)NC(=O)CNC(=O)[C@H](CO)NC(=O)[C@H](CO)NC(=O)[C@@H]1CCCN1C(=O)CNC(=O)CNC(=O)[C@H](CCCCN)NC(=O)[C@@H](NC(=O)[C@H](CC(C)C)NC(=O)[C@H](Cc1c[nH]c2ccccc12)NC(=O)[C@H](C)NC(=O)[C@@H](NC(=O)[C@H](Cc1ccccc1)NC(=O)[C@H](CCC(=O)O)NC(=O)[C@H](CCCNC(=N)N)NC(=O)[C@@H](NC(=O)[C@H](C)NC(=O)[C@H](CCC(N)=O)NC(=O)[C@H](CCC(=O)O)NC(=O)[C@H](CCC(=O)O)NC(=O)[C@H](CC(C)C)NC(=O)[C@H](Cc1ccc(O)cc1)NC(=O)[C@H](CO)NC(=O)[C@H](CO)NC(=O)[C@@H](NC(=O)[C@@H](N)CC(=O)O)C(C)C)C(C)C)[C@@H](C)CC)C(C)C)C(N)=O)C(=O)O)C(=O)O)C(=O)O)C(=O)O [compound 54] (H-DVSSYLEEQAVREFIAWLVKGGPSSGAPPPSK([γGlu-γGlu-γGlu-γGlu-Palmitoyl])-NH2) | > 20 | 21 | – | –
5 | CCCCCCCCCCCCCCCC(=O)NCCCC[C@H](NC(=O)[C@H](CO)NC(=O)[C@@H]1CCCN1C(=O)[C@@H]1CCCN1C(=O)[C@@H]1CCCN1C(=O)[C@H](C)NC(=O)CNC(=O)[C@H](CO)NC(=O)[C@H](CO)NC(=O)[C@@H]1CCCN1C(=O)CNC(=O)CNC(=O)[C@H](CCCCN)NC(=O)[C@@H](NC(=O)[C@H](CC(C)C)NC(=O)[C@H](Cc1c[nH]c2ccccc12)NC(=O)[C@H](C)NC(=O)[C@@H](NC(=O)[C@H](Cc1ccccc1)NC(=O)[C@H](CCC(=O)O)NC(=O)[C@@H](CCCNC(=N)N)NC(=O)[C@@H](NC(=O)[C@H](C)NC(=O)[C@H](CCC(N)=O)NC(=O)[C@H](CCC(=O)O)NC(=O)[C@H](CCC(=O)O)NC(=O)[C@H](CC(C)C)NC(=O)[C@H](Cc1ccc(O)cc1)NC(=O)[C@H](CO)NC(=O)[C@H](CO)NC(=O)[C@@H](NC(=O)[C@@H](N)CC(=O)O)C(C)C)C(C)C)[C@@H](C)CC)C(C)C)C(N)=O [compound 87] (H-DVSSYLEEQAV[dR]EFIAWLVKGGPSSGAPPPSK(Palmitoyl)-NH2; N-terminus assumed) | – | – | 0.8 (≈ 0.22 mM) | 16
6 | CC[C@H](C)[C@H](NC(=O)[C@H](Cc1ccccc1)NC(=O)[C@H](CCC(=O)O)NC(=O)[C@H](CCCNC(=N)N)NC(=O)[C@@H](NC(=O)[C@H](C)NC(=O)[C@H](CCC(N)=O)NC(=O)[C@H](CCC(=O)O)NC(=O)[C@H](CCC(=O)O)NC(=O)[C@H](CC(C)C)NC(=O)[C@H](Cc1ccc(O)cc1)NC(=O)[C@H](CO)NC(=O)[C@H](CO)NC(=O)[C@@H](NC(=O)[C@@H](N)CC(=O)O)C(C)C)C(C)C)C(=O)N[C@@H](C)C(=O)N[C@@H](Cc1c[nH]c2ccccc12)C(=O)N[C@@H](CC(C)C)C(=O)N[C@H](C(=O)N[C@@H](CCCCN)C(=O)NCC(=O)NCC(=O)N1CCC[C@H]1C(=O)N[C@@H](CO)C(=O)N[C@@H](CO)C(=O)NCC(=O)N[C@@H](C)C(=O)N1CCC[C@H]1C(=O)N1CCC[C@H]1C(=O)N1CCC[C@H]1C(=O)N[C@@H](CO)C(=O)N[C@@H](CCCCNC(=O)CC[C@H](NC(=O)CC[C@H](NC(=O)CCCCCCCCCCCCCCCCC(=O)O)C(=O)O)C(=O)O)C(N)=O)C(C)C [compound 64] (H-DVSSYLEEQAVREFIAWLVKGGPSSGAPPPSK([γGlu-γGlu-C18 diacid])-NH2; N-terminus assumed) | > 25 | 841 | – | –
7 | CCCCCCCCCCCCCCCC(=O)N[C@@H](CCC(=O)N[C@@H](CCC(=O)NCCCC[C@H](NC(=O)[C@H](CO)NC(=O)[C@@H]1CCCN1C(=O)[C@@H]1CCCN1C(=O)[C@@H]1CCCN1C(=O)[C@H](C)NC(=O)CNC(=O)[C@H](CO)NC(=O)[C@H](CO)NC(=O)[C@@H]1CCCN1C(=O)CNC(=O)CNC(=O)[C@H](CCCCN)NC(=O)[C@@H](NC(=O)[C@H](CC(C)C)NC(=O)[C@H](Cc1c[nH]c2ccccc12)NC(=O)[C@H](C)NC(=O)[C@@H](NC(=O)[C@H](Cc1ccccc1)NC(=O)[C@H](CCC(=O)O)NC(=O)[C@H](CCCNC(=N)N)NC(=O)[C@@H](NC(=O)[C@H](C)NC(=O)[C@H](CCC(N)=O)NC(=O)[C@H](CCC(=O)O)NC(=O)[C@H](CCC(=O)O)NC(=O)[C@H](CC(C)C)NC(=O)[C@H](Cc1ccc(O)cc1)NC(=O)[C@H](CO)NC(=O)[C@H](CO)NC(=O)[C@@H](NC(=O)[C@@H](N)CC(=O)O)C(C)C)C(C)C)[C@@H](C)CC)C(C)C)C(N)=O)C(=O)O)C(=O)O [compound 53] (H-DVSSYLEEQAVREFIAWLVKGGPSSGAPPPSK([γGlu-γGlu-Palmitoyl])-NH2) | > 20 | 13 | – | –
